We go through 15 molecules from ChEMBL document CHEMBL1152891, “Design of novel aminopyrrolidine factor Xa inhibitors from a screening hit” (Eur J Med Chem, 2009).

Structures are written as SMILES. Converted amounts (≈) assume the structure as drawn.

Series [1] is described as follows: Aqueous solubility of the compound. In kind it is physicochemical.
Series [2] can be described thus: Lipophilicity, log D of the compound. In kind it is physicochemical. To be noted: octanol/water.
The nature of series [3]: Tmax in rat at 1 mg, po. To be noted: in vivo. In kind it is ADME, organism-based.
Series [4] is described as follows: Volume of distribution at steady state in rat at 1 mg, iv. The format is ADME, organism-based. To be noted: in vivo, read-out: Vdss.
Series [5] can be described thus: Permeability across cell membrane. In kind it is ADME. To be noted: not told; read-out: permeability.
Series [6] can be described thus: Oral bioavailability in rat at 1 mg, po. As to conditions: in vivo. The format is ADME, organism-based.
A short description of series [7]: Volume of distribution at steady state in rat at 0.5 mg, iv. The format is ADME, organism-based. As to conditions: in vivo, read-out: Vdss.

For orientation: solubility means the concentration that dissolves in the medium under given conditions. Usually logD stands for the decadic logarithm of the distribution of all forms, ionised or not, between an organic phase and buffer at a given pH. High values mean higher lipophilicity, low ones lower lipophilicity. As to `O=C(Cc1csc(NC(=O)c2ccc(Cl)cc2)n1)Nc1ccc(-n2ccccc2=O)cc1F`, the solubility in series [1] (aqueous, read-out: solubility) is < 1 µg/mL. The logD in series [2] is > 3.
For `O=C(CN1CC[C@H](NC(=O)c2ccc(Cl)s2)C1)Nc1ccc(-n2ccccc2=O)cc1F`, in series [1] (aqueous, read-out: solubility), the solubility was found to be 166 µg/mL (≈ 350 µM). This molecule registered a log distribution coefficient (logD) in series [2] of 2.3.
As for `CN1CCC(N2CCN(C(=O)Cn3ccc(NC(=O)c4ccc(Cl)s4)n3)CC2)CC1`, the solubility in series [1] (aqueous, read-out: solubility) was > 601 µg/mL. This molecule returned a logD in series [2] of 0.1.
As to `O=C(Cn1ccc(NC(=O)c2ccc(Cl)s2)n1)Nc1ccc(-n2ccccc2=O)cc1F`, the solubility in series [1] (aqueous, read-out: solubility) was < 1 µg/mL. For the same molecule, in series [2], the log distribution coefficient (logD) is > 3.
With `O=C(Nc1nc(CC(=O)N2CCN(CC(=O)N3CCCC3)CC2)cs1)c1ccc(Cl)s1`, the solubility in series [1] (aqueous, read-out: solubility) is > 640 µg/mL. Moreover, the logD in series [2] amounted to 2.1.
Take `O=C(Cc1csc(NC(=O)c2ccc(Cl)s2)n1)Nc1ccc(-n2ccccc2=O)cc1F`: the solubility in series [1] (aqueous, read-out: solubility) was < 1 µg/mL. Besides, in series [2], the logD is > 3.
For `O=C(Nc1nc(CC(=O)N2CCN(CC(=O)N3CCCC3)CC2)cs1)c1ccc(Cl)cc1`, the solubility in series [1] (aqueous, read-out: solubility) was > 580 µg/mL. In addition, the logD in series [2] stood at 2.2.
By Tmax is commonly meant the time from dosing to the highest level. In general, bioavailability refers to dose-corrected exposure relative to a reference, in per cent. In the case of `O=C(CN1C[C@H](NC(=O)c2ccc(Cl)s2)[C@@H](OCCO)C1)Nc1ccc(-n2ccccc2=O)cc1F`, the solubility in series [1] (buffer) was > 713 µg/mL. Moreover, the Tmax in series [3] amounted to 15 min. The logD in series [2] was determined as 1.6. For the same molecule, the Vd in series [4] was determined as 1.1 L/kg. Further, in series [5], the Papp came out at 0.4 ×10⁻⁶ cm/s. This molecule also had a bioavailability in series [6] of 16%.
Regarding `O=C(Cn1cnc(NC(=O)c2ccc(Cl)s2)n1)Nc1ccc(-n2ccccc2=O)cc1F`, the solubility in series [1] (aqueous, read-out: solubility) stood at 1 µg/mL (≈ 2.11 µM). Further, the time of peak concentration (Tmax) in series [3] came to 66 min. Also, the Vd in series [7] came to 0.3 L/kg. The molecule also came in with a logD in series [2] of 2.4. In series [5], the Papp was 0.9 ×10⁻⁶ cm/s. Also, the bioavailability in series [6] was found to be 10%.
Turning to `O=C(CN1CC[C@@H](NC(=O)c2ccc(Cl)s2)C1)Nc1ccc(-n2ccccc2=O)cc1F`, the solubility in series [1] (aqueous, read-out: solubility) stood at 197 µg/mL (≈ 415 µM). Also, the logD in series [2] is 2.3.
As for `O=C(Cn1nnc(NC(=O)c2ccc(Cl)s2)n1)Nc1ccc(-n2ccccc2=O)cc1F`, the solubility in series [1] (aqueous, read-out: solubility) was < 1 µg/mL. In addition, the logD in series [2] came to 2.4.
For the molecule `O=C(CN1C[C@H](NC(=O)c2ccc(Cl)s2)[C@@H](O)C1)Nc1ccc(-n2ccccc2=O)cc1F`, the concentration in solution in series [1] (buffer) (solubility) was 516 µg/mL (≈ 1050 µM). Besides, in series [3], the Tmax came to 15 min. The Vd in series [7] worked out at 1.1 L/kg. For the same molecule, the Papp in series [5] was 1.5 ×10⁻⁶ cm/s. Moreover, in series [6], the bioavailability is 38%.
Turning to `CN1CCC(N2CCN(C(=O)Cn3cnc(NC(=O)c4ccc(Cl)s4)n3)CC2)CC1`, the solubility in series [1] (aqueous, read-out: solubility) was > 600 µg/mL. In addition, the logD in series [2] was -0.5.
As to `CN1CCC(N2CCN(C(=O)Cc3csc(NC(=O)c4ccc(Cl)cc4)n3)CC2)CC1`, in series [1] (aqueous, read-out: solubility), the solubility is > 620 µg/mL. In series [2], the logD turned out to be 0.6.
The matching figures for `CN1CCC(N2CCN(C(=O)Cc3csc(NC(=O)c4ccc(Cl)s4)n3)CC2)CC1`: > 620 µg/mL and 1.
